Assays:
[1] = immune sera mixing experiment; format: in vivo, mouse; settings: 6-week immune sera physically mixed 50:50
[2] = test system: antibodies in serum from dnaX-immunized mice; format: binding, mouse

With PARYANANGRDLITLGIGSC the “distinguishability in 50:50 mixed sera” value [1] was “still distinguishable from the KLH-immunized mice”.

In the case of “Transferrin: irrelevant human protein used to adsorb the immune sera”, the “ability to adsorb the signal from immune sera” value [2] is reported as “Only the dnaX protein could adsorb the signal”.

With “dnaX protein: recombinant dnaX protein produced in E. coli” the “ability to adsorb the signal from immune sera” value [2] was “Only the dnaX protein could adsorb the signal” and the “dnaX-specific peptides reduced in intensity by adsorption” value ([2]; of the 210 dnaX-specific peptides, beads bearing dnaX protein) was 35 peptides.
